From US7179934B2, “Amino acids with affinity for the α2δ-protein” (Warner-Lambert Company LLC, priority 2003, dated 2007)

Tested on: α2δ-subunit derived from porcine brain tissue
Test: radioligand binding assay using [3H]-gabapentin
Conditions: [3H]-gabapentin radioligand
Excerpt: The ability of compounds of the present invention to bind to the α2δ-subunit of a calcium channel can be determined using the following binding assay.
The radioligand binding assay using [^3H]-gabapentin and the α2δ-subunit derived from porcine brain tissue was used. See Nicolas S. Gee et al., “The novel anticonvulsant drug, gabapentin (Neurontin), binds to the α2δ subunit of a calcium channel,” J. Biol. Chem. 271 (10):5768–76 (1996). Compounds of the invention bind with nanomolar to micromolar affinity for the α2δ protein.

CCCCC(CC)CCC(CN)C(=O)O (stereo not shown) [2-aminomethyl-5-ethyl-nonanoic acid]
affinity to the α2δ protein: 75 nM
